According to patent US12268670B2, “Combination of small molecule CD-47 inhibitors with other anti-cancer agents” (Aurigene Oncology Limited, priority 2018, dated 2025):
Marks after values point to notes of the source that are not given here.

How the values were obtained:
[1] = system: luciferase expressing Raji (lymphoma cell line) cells; assay: Luciferase based phagocytosis assay (macrophages, combination with anti-human CD20 antibody); type: cell-based; conditions: in combination with anti-human CD20 antibody, compared with compound alone; FIG. 1
Experimental: In vitro phagocytosis assay was performed to evaluate the ability of test item to enhance the phagocytic activity of macrophages. Monocytes were isolated from blood of healthy donor and cultured for 6-8 days using 10% RPMI (Roswell Park Memorial Institute) media and recombinant human M-CSF to differentiate into macrophages. Media was changed every alternate day. After differentiation, adherent macrophages were collected by gentle scraping and cultured in 10% RPMI overnight at a density of 0.1 million per well in 48 well tissue culture plate. Simultaneously, luciferase expressing Raji (lymphoma cell line) cells were cultured in 10% RPMI media with 100 μg/mL of hygromycin B in tissue culture flask. On the day of phagocytosis, macrophages were serum starved for 2 hours. 0.4 million luciferase expressing Raji cells per well were incubated with anti-human CD47 antibody or Mouse IgG1 K Isotype Control antibody or various concentrations of selected compounds of the present invention alone or in combination with anti-human CD20 antibody in serum free media for 30 min at 37° C. and added into respective well of the 48 well plate seeded with macrophages. […] Luminescence reading was taken using plate reader after transferring the content of each well to white plate. Intensity of luminescence indicated the extent of phagocytosis. […]

[2] = system: A20 syngeneic lymphoma model; assay: Efficacy study in A20 syngeneic lymphoma model; type: in vivo, Balb/c mice
Source text: Female Balb/c (BALB/cAnNTac) mice (6-8 weeks-old) bred in-house were used in this efficacy study in the A20 syngeneic lymphoma model. The animals were marked individually with tail marks and kept in cages that were identified by a cage card showing the study code, date of experimentation, sex and number of animals. During the experiment, the animals were weighed daily. A20 cell line (B-cell lymphoma line derived from a spontaneous reticulum cell neoplasm found in an old BALB/cAnN mouse) was procured from ATCC.
When the mean tumor volumes reached approximately 75 mm^3, the animals were randomized based on tumor volumes into four groups (G1 to G4) of twelve animals (N=12) each and dosed with vehicle, Compound 6, anti-mouse PD-L1 antibody and the combination of Compound 6 and anti-mouse PD-L1 antibody as mentioned below:
The treatment was continued for a period of 21 days, during which the overall efficacy and tolerability were evaluated based on tumor volume and body weight changes observed during the treatment period.
Individual animal body weights were recorded daily before the administration of Compound 6 throughout the experimental period. […] The tumor volumes were measured in all treatment group animals thrice a week (once every 2-3 days) using a digital Vernier callipers. From an ethical viewpoint, any treatment/control group with a mean tumor weight in excess of 10% of animal body weight were humanely sacrificed. As a measure of efficacy, the % T (treatment)/C(control) and % TGI (% Tumor growth inhibition) values were calculated. Graphs and statistical analysis were performed using GraphPad Prism®, Version 7.0. For analysis of tumor volume data, statistical comparison was done on Day 18 for all groups using One-way ANOVA with Dunnett's multiple comparison test. All analyses and comparisons was evaluated at the 5% (p<0.05) level. A “p” value less than 0.05 was considered as significant.

[3] = system: H929 (multiple myeloma cell line) cells; assay: Human macrophage phagocytosis assay in combination with bortezomib; type: cell-based; conditions: H929 cells treated with 10 nM bortezomib for 48 hrs, compared with compound alone; FIG. 2
Experimental: In vitro phagocytosis assay was performed to evaluate the ability of test item to enhance the phagocytic activity of macrophages. Monocytes were isolated from blood of healthy donors and cultured for 6-8 days using complete RPMI (Roswell Park Memorial Institute) supplemented with 20 ng/mL recombinant human M-CSF to differentiate them into macrophages. Media was changed every alternate day. Simultaneously H929 cells were cultured in complete RPMI media and treated with 10 nM bortezomib for 48 hrs. Macrophages were starved for 2 hrs in serum free RPMI.CFSE stained, Bortezomib treated/untreated H929 (multiple myeloma cell line) cells were seeded at a density of 0.2×10^6 cells/well in 96-well low attachment plate and treated with anti-human CD47 purified B6H12 (5 μg/mL)/Mouse IgG1 K Isotype Control antibody (5 μg/mL)/different concentrations of selected compounds of the present invention in serum free media for 30 min at 37° C. Serum starved macrophages were added to H929 cells at a ratio of 1:4 (macrophages:H929 cells) and incubated for 2 hours at 37° C. Cells in each well were stained with anti-human CD11b APC for 30 minutes at 4° C. in dark followed by fixation and FACS analysis. Cells positive for FITC and APC were considered as H929 cells phagocytosed by macrophages. Data acquired using FACS verse was analysed using Flow Jo software.

Compound | phagocytosis of lymphoma cells (luminescence intensity) [1] | % TGI ([2]; A20 tumor bearing Balb/c mice, Compound 6 30 mg/kg bid oral, anti-mouse PD-L1 antibody 200 μg/animal i.p. Day 1, 3, 6, 9, statistics on Day 18) | tolerability (clinical signs, mortality) ([2]; Compound 6 30 mg/kg bid, single agent or in combination with PD-L1 antibody, 21 days) | tumor growth inhibition (TGI) ([2]; at the end of treatment period (21 days), Compound 6 30 mg/kg, A20 tumor bearing mice) | phagocytosis of multiple myeloma cells (FACS, FITC and APC positive cells) [3]
NC(=O)CC[C@H](N)c1noc(CNC(=O)N2CCCC2C(=O)O)n1 (stereo partly shown) [Compound 6] | Enhanced phagocytosis | 72* % | well tolerated without any treatment related clinical signs and mortality | 72% | Enhanced phagocytosis
N=C(N)NCCC[C@H](NC(=O)N1CCCC1C(=O)O)c1nc([C@@H](N)CCC(=O)O)no1 (stereo partly shown) [Compound 3] | Enhanced phagocytosis |  |  |  | Enhanced phagocytosis
